# Measurements reported in patent publication US20150105252A1, “SUBSTITUTED PYRAZOLES AS HERBICIDES” (E I DU PONT DE NEMOURS AND COMPANY, priority 2013, published 2015).
# Tests used:
# foxtail, giant = assay: Test C postemergence; format: in vivo, Setaria faberii
# Summary of the method: (§1)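 Seeds sown in loam–sand blend and treated preemergence with test chemicals in non-phytotoxic solvent with surfactant; postemergence plants in peat-based medium, treated at 2–18 cm (1- to 4-leaf stage). Greenhouse 13 to 15 days, then visual rating versus controls, 0 (no effect) to 100 (complete control).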
# oilseed rape = assay: Test C postemergence; format: in vivo, Brassica napus
# Summary of the method: as §1
# galium = assay: Test C postemergence; format: in vivo, Galium aparine
# Summary of the method: as §1
# blackgrass = assay: Test C postemergence; format: in vivo, Alopecurus myosuroides
# Summary of the method: as §1
# velvetleaf = assay: Test C postemergence; format: in vivo, Abutilon theophrasti
# Summary of the method: as §1
# waterhemp = assay: Test C postemergence; format: in vivo, Amaranthus rudis
# Summary of the method: as §1
# ryegrass, Italian = assay: Test C postemergence; format: in vivo, Lolium multiflorum
# Summary of the method: as §1
# barnyardgrass = assay: Test C postemergence; format: in vivo, Echinochloa crus-galli
# Summary of the method: as §1
# lambsquarters [1] = assay: Test C postemergence; format: in vivo, Chenopodium album
# Summary of the method: as §1
# oat, wild = assay: Test C postemergence; format: in vivo, Avena fatua
# Summary of the method: as §1
# kochia = assay: Test C postemergence; format: in vivo, Kochia scoparia
# Summary of the method: as §1
# lambsquarters [2] = assay: Test C preemergence; format: in vivo, Chenopodium album
# Excerpt: Seeds of plant species selected from blackgrass (Alopecurus myosuroides), ryegrass, Italian (Italian ryegrass, Lolium multiflorum), wheat (winter wheat, Triticum aestivum), galium (catchweed bedstraw, Galium aparine), corn (Zea mays), crabgrass, large (large crabgrass, Digitaria sanguinalis), foxtail, giant (giant foxtail, Setaria faberii), johnsongrass (Sorghum halepense), lambsquarters (Chenopodium album), morningglory (Ipomoea coccinea), nutsedge, yellow (yellow nutsedge, Cyperus esculentus), pigweed (redroot pigweed, Amaranthus retroflexus), ragweed (common ragweed, Ambrosia elation), soybean (Glycine max), barnyardgrass (Echinochloa crus-galli), oilseed rape (Brassica napus), waterhemp (common waterhemp, Amaranthus rudis), oat, wild (wild oat, Avena fatua), kochia (Kochia scoparia), Surinam grass (Brachiaria decumbens), foxtail, green (green foxtail, Setaria viridis), goosegrass (Eleusine indica), bromegrass, downy (downy bromegrass, Bromus tectorum), nightshade (eastern black nightshade, Solanum ptycanthum), cocklebur (common cocklebur, Xanthium strumarium), cupgrass, woolly (woolly cupgrass, Eriochloa villosa), bermudagrass (Cynodon dactylon), sunflower, (common oilseed sunflower, Helianthus annuus), Russian thistle (Salsola kali), and velvetleaf (Abutilon theophrasti) were planted into a blend of loam soil and sand and treated preemergence with test chemicals formulated in a non-phytotoxic solvent mixture which included a surfactant.
# At the same time, plants selected from these crop and weed species and also chickweed (common chickweed, Stellaria media), canarygrass (littleseed canarygrass, Phalaris minor), and deadnettle (henbit deadnettle, Lamium amplexicaule), were planted in pots containing Redi-Earth® planting medium (Scotts Company, 14111 Scottslawn Road, Marysville, Ohio 43041) comprising spaghnum peat moss, vermiculite, wetting agent and starter nutrients and treated with postemergence applications of test chemicals formulated in the same manner. Plants ranged in height from 2 to 18 cm (1- to 4-leaf stage) for postemergence treatments. Treated plants and controls were maintained in a greenhouse for 13 to 15 days, after which time all species were compared to controls and visually evaluated. Plant response ratings, summarized in Table C, are based on a scale of 0 to 100 where 0 is no effect and 100 is complete control. A dash (-) response means no test result.
# nutsedge, yellow = assay: Test C postemergence; format: in vivo, Cyperus esculentus
# Summary of the method: as §1
# crabgrass, large = assay: Test C postemergence; format: in vivo, Digitaria sanguinalis
# Summary of the method: as §1
# morningglory = assay: Test C postemergence; format: in vivo, Ipomoea coccinea
# Summary of the method: as §1
# [3] = Postemergence, 31 g ai/ha, visually evaluated after 13 to 15 days
# [4] = postemergence, 62 g ai/ha, scale 0 to 100
# [5] = postemergence, 250 g ai/ha, scale 0 to 100 (0 no effect, 100 complete control)
# [6] = postemergence, 125 g ai/ha, scale 0 to 100, 0 no effect, 100 complete control
smiles,measurement,setting,value
CCCc1cc(C(=O)NCC)nn1Cc1ccnc(C(F)(F)F)c1 [Compound 95],"Plant response rating (scale of 0 to 100 where 0 is no effect and 100 is complete control), Foxtail, Giant","foxtail, giant; [3]",5
same,"Foxtail, Giant plant response rating","foxtail, giant; [4]",40
same,"Plant response rating, Foxtail, Giant","foxtail, giant; [5]",60
same,"Plant response rating, Foxtail, Giant","foxtail, giant; [6]",45
same,"Plant response rating (scale of 0 to 100 where 0 is no effect and 100 is complete control), Oilseed Rape",oilseed rape; [3],30
same,Oilseed Rape plant response rating,oilseed rape; [4],30
same,"Plant response rating, Oilseed Rape",oilseed rape; [5],50
same,"Plant response rating, Oilseed Rape",oilseed rape; [6],50
same,"Plant response rating (scale of 0 to 100 where 0 is no effect and 100 is complete control), Galium",galium; [3],60
same,Galium plant response rating,galium; [4],80
same,"Plant response rating, Galium",galium; [5],90
same,"Plant response rating, Galium",galium; [6],90
same,"Plant response rating (scale of 0 to 100 where 0 is no effect and 100 is complete control), Blackgrass",blackgrass; [3],5
same,Blackgrass plant response rating,blackgrass; [4],5
same,"Plant response rating, Blackgrass",blackgrass; [5],35
same,"Plant response rating, Blackgrass",blackgrass; [6],15
same,"Plant response rating (scale of 0 to 100 where 0 is no effect and 100 is complete control), Velvetleaf",velvetleaf; [3],10
same,Velvetleaf plant response rating,velvetleaf; [4],15
same,"Plant response rating, Velvetleaf",velvetleaf; [5],40
same,"Plant response rating, Velvetleaf",velvetleaf; [6],35
same,"Plant response rating (scale of 0 to 100 where 0 is no effect and 100 is complete control), Waterhemp",waterhemp; [3],30
same,Waterhemp plant response rating,waterhemp; [4],30
same,"Plant response rating, Waterhemp",waterhemp; [5],30
same,"Plant response rating, Waterhemp",waterhemp; [6],30
same,"Plant response rating (scale of 0 to 100 where 0 is no effect and 100 is complete control), Ryegrass, Italian","ryegrass, Italian; [3]",5
same,"Ryegrass, Italian plant response rating","ryegrass, Italian; [4]",5
same,"Plant response rating, Ryegrass, Italian","ryegrass, Italian; [5]",30
same,"Plant response rating, Ryegrass, Italian","ryegrass, Italian; [6]",5
same,"Plant response rating (scale of 0 to 100 where 0 is no effect and 100 is complete control), Barnyardgrass",barnyardgrass; [3],0
same,Barnyardgrass plant response rating,barnyardgrass; [4],0
same,"Plant response rating, Barnyardgrass",barnyardgrass; [5],30
same,"Plant response rating, Barnyardgrass",barnyardgrass; [6],0
same,"Plant response rating (scale of 0 to 100 where 0 is no effect and 100 is complete control), Lambsquarters",lambsquarters [1]; [3],40
same,Lambsquarters plant response rating,lambsquarters [1]; [4],80
same,"Plant response rating, Lambsquarters",lambsquarters [1]; [5],98
same,"Plant response rating, Lambsquarters",lambsquarters [1]; [6],90
same,"Plant response rating (scale of 0 to 100 where 0 is no effect and 100 is complete control), Oat, Wild","oat, wild; [3]",5
same,"Oat, Wild plant response rating","oat, wild; [4]",5
same,"Plant response rating, Oat, Wild","oat, wild; [5]",50
same,"Plant response rating, Oat, Wild","oat, wild; [6]",15
same,"Plant response rating (scale of 0 to 100 where 0 is no effect and 100 is complete control), Kochia",kochia; [3],50
same,Kochia plant response rating,kochia; [4],70
same,"Plant response rating, Kochia",kochia; [5],85
same,"Plant response rating, Kochia",kochia; [6],85
same,"Plant response rating (scale of 0 to 100), Lambsquarters","lambsquarters [2]; Preemergence, 250 g ai/ha",100
same,Lambsquarters plant response rating,"lambsquarters [2]; preemergence, 31 g ai/ha, visual rating, scale 0 to 100 (0 no effect, 100 complete control), 13 to 15 days",100
same,"Plant response rating, Lambsquarters","lambsquarters [2]; preemergence, 62 g ai/ha, 13 to 15 days, scale 0 to 100, 0 = no effect, 100 = complete control",100
same,Lambsquarters plant response rating,"lambsquarters [2]; preemergence, 125 g ai/ha, scale 0 to 100, 0 is no effect, 100 is complete control",100
same,"Plant response rating (scale of 0 to 100 where 0 is no effect and 100 is complete control), Nutsedge, Yellow","nutsedge, yellow; [3]",0
same,"Nutsedge, Yellow plant response rating","nutsedge, yellow; [4]",0
same,"Plant response rating, Nutsedge, Yellow","nutsedge, yellow; [5]",10
same,"Plant response rating, Nutsedge, Yellow","nutsedge, yellow; [6]",5
same,"Plant response rating (scale of 0 to 100 where 0 is no effect and 100 is complete control), Crabgrass, Large","crabgrass, large; [3]",5
same,"Crabgrass, Large plant response rating","crabgrass, large; [4]",10
same,"Plant response rating, Crabgrass, Large","crabgrass, large; [5]",45
same,"Plant response rating, Crabgrass, Large","crabgrass, large; [6]",40
same,"Plant response rating (scale of 0 to 100 where 0 is no effect and 100 is complete control), Morningglory",morningglory; [3],50
same,Morningglory plant response rating,morningglory; [4],50
same,"Plant response rating, Morningglory",morningglory; [5],70
same,"Plant response rating, Morningglory",morningglory; [6],50
